Converted amounts (≈) assume the structure as drawn. “And” between values parts separate entries of the source, which are not always exact repeats. Equal values may be shown once. Read-outs that look alike come from different tables or passages of the source.
How the values were obtained:
[1] = tested on: M. tuberculosis Erdman strain expressing luciferase; assay: microbe, parasite or virus in culture; assay type: cell-based, Mycobacterium tuberculosis; details: Mycobacterium tuberculosis, ERDMAN, 168 h; 30 μg mL^−1, pH 7.0, 7 days, vs untreated controls; read-out: Observed % growth inhibition at 30 µg/mL
Mycobacterium fortuitum = assay: microbe, parasite or virus in culture; assay type: cell-based; details: for MIC: Mycolicibacterium fortuitum
Enterococcus faecalis = assay: Aerobic antibacterial MIC, standard dilution technique; assay type: cell-based; details: Enterococcus faecalis, clinical isolate; value in parentheses; read-out: Minimum inhibitory concentration (MIC) Enterococcus faecalis
From the text: Antibacterial properties were investigated for the synthesized compounds against a variety of Gram-positive (Staphylococcus aureus, Enterococcus faecalis) and Gram-negative (Klebsiella pneumonia, Proteus vulgaris, Pseudomonas aeruginosa) clinical isolate bacteria utilizing the standard technique.[21]

Mycobacterium bovis = assay: microbe, parasite or virus in culture; assay type: cell-based; details: Mycobacterium tuberculosis variant bovis, read-out: Minimum inhibitory concentration (MIC) M. bovis
Mycobacterium marinum = assay: microbe, parasite or virus in culture; assay type: cell-based; details: clinical isolate, read-out: Minimum inhibitory concentration (MIC) M. marinum
[2] = tested on: RPE1 (normal human immortalized retinal epithelial) cell line; assay: Antiproliferative properties by MTT technique; assay type: cell-based; details: RPE1 cells, 100 μM
Description: Antiproliferative properties of the synthesized compounds were screened against RPE1 (normal human immortalized retinal epithelial) cell line to determine the toxicity/selectivity towards normal cell by the standard MTT technique.[23]
Antiproliferative properties of the synthesized compounds were tested against RPE1 (normal human immortalized retinal epithelial) cell line at 100 μM to determine the toxicity/selectivity towards normal cell by the standard MTT technique.[23]

[3] = clinical isolate, observed MIC, read-out: Minimum inhibitory concentration (MIC) M. fortuitum
[4] = clinical isolate, read-out: Minimum inhibitory concentration (MIC) M. fortuitum
[5] = M. fortuitum, observed values listed with the BMLR-QSAR model, read-out: Observed MIC (Table S6)

Compound | inhibition at 30 µg/mL [1] | MIC (Mycobacterium fortuitum; [3]) | MIC (Mycobacterium fortuitum; [4]) | MIC (Enterococcus faecalis) | melting point | MIC (Mycobacterium bovis) | MIC (Mycobacterium marinum; observed MIC) | MIC (Mycobacterium marinum) | Percentage of cell proliferation ± SD [2] | MIC (Mycobacterium fortuitum; [5]) | potency relative to INH (M. fortuitum MIC) (Mycobacterium fortuitum; vs INH MIC 145.8 μM) | potency relative to PZA (M. fortuitum MIC) (Mycobacterium fortuitum; vs PZA MIC 81.2 μM)
CC(C)[C@H](NC(=O)c1cnccn1)C(=O)O [10b, (Pyrazine-2-carbonyl)-L-valine] | 91% | > 89.6 µM | > 20 µg/mL | 0.13 µM (≈ 0.029 µg/mL) | 160 to 162 °C | > 20 µg/mL and > 89.6 µM | > 89.6 µM | > 20 µg/mL | 82.1 ± 3.0% | – | – | –
CC(C)[C@H](NC(=O)c1cnccn1)C(=O)NNC(=O)c1ccncc1 [12b, (S)-N-(1-(2-Isonicotinoylhydrazineyl)-3-methyl-1-oxobutan-2-yl)pyrazine-2-carboxamide] | 84.2% | 58.4 µM | 20 µg/mL | 0.33 µM (≈ 0.113 µg/mL) | 175 to 177 °C | > 20 µg/mL and > 58.4 µM | 58.4 µM | 20 µg/mL | 96.4 ± 2.7% | 58400 µM | – | –
O=C(N[C@@H](Cc1c[nH]c2ccccc12)C(=O)O)c1cnccn1 [10g, (Pyrazine-2-carbonyl)-L-tryptophan] | 8.8% | > 64.5 µM | > 20 µg/mL | – | 127 to 129 °C | > 20 µg/mL and > 64.5 µM | > 64.5 µM | > 20 µg/mL | 80.1 ± 7.4% | – | – | –
CSCC[C@H](NC(=O)c1cnccn1)C(=O)O [10d, (Pyrazine-2-carbonyl)-L-methionine] | 80.2% | > 78.3 µM | > 20 µg/mL | – | 136 to 138 °C | > 20 µg/mL and > 78.3 µM | > 78.3 µM | > 20 µg/mL | 82.9 ± 8.5% | – | – | –
CC[C@H](C)[C@H](NC(=O)c1cnccn1)C(=O)NNC(=O)c1ccncc1 [12c, N-((2S,3S)-1-(2-Isonicotinoylhydrazineyl)-3-methyl-1-oxopentan-2-yl)pyrazine-2-carboxamide] | 84.1% | 56.1 µM | 20 µg/mL | – | 168 to 170 °C | > 20 µg/mL and > 56.1 µM | 56.1 µM | 20 µg/mL | 84.6 ± 3.7% | 56100 µM | – | –
O=C(NNC(=O)C(Cc1ccccc1)NC(=O)c1cnccn1)c1ccncc1 (stereo not shown) [12f, N-(1-(2-Isonicotinoylhydrazineyl)-1-oxo-3-phenylpropan-2-yl)pyrazine-2-carboxamide] | – | 25.6 µM | 10 µg/mL | – | 143 to 145 °C | > 20 µg/mL and > 51.2 µM | 25.6 µM | 10 µg/mL | 95.5 ± 8.6% | – | about 5.6 folds | ~3.2 folds
O=C(NNC(=O)[C@H](Cc1c[nH]c2ccccc12)NC(=O)c1cnccn1)c1ccncc1 [12g, (S)-N-(3-(1H-Indol-3-yl)-1-(2-isonicotinoylhydrazineyl)-1-oxopropan-2-yl)pyrazine-2-carboxamide] | 96% | 46.6 µM | 20 µg/mL | – | 243 to 245 °C | > 20 µg/mL and > 46.6 µM | 46.6 µM | 20 µg/mL | 92.2 ± 1.2% | 46600 µM | – | –
CC[C@@H](C)[C@H](NC(=O)c1cnccn1)C(=O)O [10c, (Pyrazine-2-carbonyl)-L-alloisoleucine] | 84.3% | > 84.3 µM | > 20 µg/mL | – | 164 to 166 °C | > 20 µg/mL and > 84.3 µM | > 84.3 µM | > 20 µg/mL | 81.8 ± 5.5% | – | – | –
O=C(NNC(=O)[C@H](Cc1ccccc1)NC(=O)c1cnccn1)c1ccncc1 [12e, (S)-N-(1-(2-Isonicotinoylhydrazineyl)-1-oxo-3-phenylpropan-2-yl)pyrazine-2-carboxamide] | 94.8% | 51.2 µM | 20 µg/mL | – | 177 to 179 °C | > 20 µg/mL and > 51.2 µM | 51.2 µM | 20 µg/mL | 83.2 ± 5.7% | 51200 µM | – | –
CC(C)C[C@H](NC(=O)c1cnccn1)C(=O)NNC(=O)c1ccncc1 [12a, (S)-N-(1-(2-Isonicotinoylhydrazineyl)-4-methyl-1-oxopentan-2-yl)pyrazine-2-carboxamide] | 68.9% | 56.1 µM | 20 µg/mL | – | 160 to 162 °C | > 20 µg/mL and > 56.1 µM | 56.1 µM | 20 µg/mL | 80.1 ± 4.2% | 56100 µM | – | –
CC(C)C[C@H](NC(=O)c1cnccn1)C(=O)O [10a, (Pyrazine-2-carbonyl)-L-leucine] | 88.8% | 84.3 µM | 20 µg/mL | – | 155 to 156 °C | > 20 µg/mL and > 84.3 µM | 84.3 µM | 20 µg/mL | 84.6 ± 0.7% | 84300 µM | – | –

Reference: article PMC9065575, “Synthesis, computational studies, antimycobacterial and antibacterial properties of pyrazinoic acid–isoniazid hybrid conjugates” (RSC Advances, 2019)
